According to PubChem BioAssay AID1918954 (Molecular Pharmacology Branch, DTP, NCI, 2023):

Test system: MDA-MB-468 complex spheroids with HUVEC/MSC, viability
Experiment: Anticancer human tumor MDA-MB-468 cell line growth inhibition;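 also: spheroids exposed to agents for seven days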;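 as to viability, T/C: 100% = DMSO vehicle control viability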
Conditions: for IC50: curve of first compound; for viability, T/C: stronger effect = lower value
Method in brief: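 Multicellular complex spheroids of tumor cells with human endothelial cells (HUVEC) and mesenchymal stem cells; the LSD1 inhibitor iadademstat was combined with standard-of-care or investigational agents. Top concentration at or near clinical Cmax, half-log dilutions; final DMSO ≤0.25%.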

[1] = second compound 0.1 µM, first compound 0.0316 µM
[2] = second compound 0.1 µM, first compound 0.1 µM
[3] = second compound 0.1 µM, first compound 0.316 µM
[4] = second compound 0.1 µM, first compound 1 µM
[5] = second compound 0.316 µM, first compound 0.0316 µM
[6] = second compound 0.316 µM, first compound 0.1 µM
[7] = second compound 0.316 µM, first compound 0.316 µM
[8] = second compound 0.316 µM, first compound 1 µM
[9] = second compound 1 µM, first compound 0.0316 µM
[10] = second compound 1 µM, first compound 0.1 µM
[11] = second compound 1 µM, first compound 0.316 µM
[12] = second compound 1 µM, first compound 1 µM
[13] = second compound 3.16 µM, first compound 0.0316 µM
[14] = second compound 3.16 µM, first compound 0.1 µM
[15] = second compound 3.16 µM, first compound 0.316 µM
[16] = second compound 3.16 µM, first compound 1 µM
[17] = second compound 10 µM, first compound 0.0316 µM
[18] = second compound 10 µM, first compound 0.1 µM
[19] = second compound 10 µM, first compound 0.316 µM
[20] = second compound 10 µM, first compound 1 µM

CC1(C)CCC(CN2CCN(c3ccc(C(=O)NS(=O)(=O)c4ccc(NCC5CCOCC5)c([N+](=O)[O-])c4)c(Oc4cnc5[nH]ccc5c4)c3)CC2)=C(c2ccc(Cl)cc2)C1 + NC1CC1c1ccc(-c2cccc(O)c2)cc1
IC50 (second compound 0.1 µM): 1820 nM
IC50 (second compound 0.316 µM): 1700 nM
IC50 (second compound 1 µM): 1830 nM
IC50 (second compound 3.16 µM): 1550 nM
IC50 (second compound 10 µM): 509 nM
viability, T/C [1]: 106%
viability, T/C [2]: 90.4%
viability, T/C [3]: 96.9%
viability, T/C [4]: 72.7%
viability, T/C (second compound 0.1 µM, first compound 3.16 µM): 29%
viability, T/C (second compound 0.1 µM, first compound 10 µM): 2.15%
viability, T/C [5]: 90.3%
viability, T/C [6]: 108%
viability, T/C [7]: 94.4%
viability, T/C [8]: 64.7%
viability, T/C (second compound 0.316 µM, first compound 3.16 µM): 30.9%
viability, T/C (second compound 0.316 µM, first compound 10 µM): 1.99%
viability, T/C [9]: 93.7%
viability, T/C [10]: 101%
viability, T/C [11]: 88.6%
viability, T/C [12]: 75.8%
viability, T/C (second compound 1 µM, first compound 3.16 µM): 27.4%
viability, T/C (second compound 1 µM, first compound 10 µM): 2.31%
viability, T/C [13]: 91.2%
viability, T/C [14]: 83.1%
viability, T/C [15]: 92.1%
viability, T/C [16]: 64%
viability, T/C (second compound 3.16 µM, first compound 3.16 µM): 24.5%
viability, T/C (second compound 3.16 µM, first compound 10 µM): 1.95%
viability, T/C [17]: 78.5%
viability, T/C [18]: 67.7%
viability, T/C [19]: 59.9%
viability, T/C [20]: 38.5%
viability, T/C (second compound 10 µM, first compound 3.16 µM): 16.8%
viability, T/C (second compound 10 µM, first compound 10 µM): 1.82%

COc1cc(Nc2ncc3c(n2)-c2ccc(Cl)cc2C(c2c(F)cccc2OC)=NC3)ccc1C(=O)O + NC1CC1c1ccc(-c2cccc(O)c2)cc1
IC50 (second compound 0.1 µM): < 3.16 nM
IC50 (second compound 0.316 µM): < 3.16 nM
IC50 (second compound 1 µM): < 3.16 nM
IC50 (second compound 3.16 µM): < 3.16 nM
IC50 (second compound 10 µM): < 3.16 nM
viability, T/C (second compound 0.1 µM, first compound 0.00316 µM): 15.5%
viability, T/C (second compound 0.1 µM, first compound 0.01 µM): 6.89%
viability, T/C [1]: 6.01%
viability, T/C [2]: 4.91%
viability, T/C [3]: 3.38%
viability, T/C [4]: 2.48%
viability, T/C (second compound 0.316 µM, first compound 0.00316 µM): 14.5%
viability, T/C (second compound 0.316 µM, first compound 0.01 µM): 6.72%
viability, T/C [5]: 5.86%
viability, T/C [6]: 5.06%
viability, T/C [7]: 3.01%
viability, T/C [8]: 2.59%
viability, T/C (second compound 1 µM, first compound 0.00316 µM): 14.1%
viability, T/C (second compound 1 µM, first compound 0.01 µM): 7.25%
viability, T/C [9]: 5%
viability, T/C [10]: 4.96%
viability, T/C [11]: 2.88%
viability, T/C [12]: 1.8%
viability, T/C (second compound 3.16 µM, first compound 0.00316 µM): 14.1%
viability, T/C (second compound 3.16 µM, first compound 0.01 µM): 8%
viability, T/C [13]: 5.68%
viability, T/C [14]: 5.16%
viability, T/C [15]: 3.35%
viability, T/C [16]: 2.58%
viability, T/C (second compound 10 µM, first compound 0.00316 µM): 12.6%
viability, T/C (second compound 10 µM, first compound 0.01 µM): 7.29%
viability, T/C [17]: 6.71%
viability, T/C [18]: 5.57%
viability, T/C [19]: 3.87%
viability, T/C [20]: 4.35%
